From article PMC9519446, “Discovery of an Orally Active Benzoxaborole Prodrug Effective in the Treatment of Chagas Disease in Non-human Primates” (Nature microbiology, 2022)
Several values for one entry are separate records, joined by “and”; a condition that tells them apart may be missing. Equal values may be shown once. Entries after “also recorded” stand apart in the source; their conditions may differ. Marks after values point to notes of the source that are not given here.

Legend:
[1] = test system: TcCBP KO T. cruzi extracellular amastigotes; assay: Extracellular amastigote assay with serine carboxypeptidase knockout T. cruzi; assay type: cell-based, Trypanosoma cruzi; settings: for % of maximum: Fig 2.c, TcCBP KO
Method: The in vitro anti-T. cruzi amastiogote activity assay was performed and optimized based on the protocol described previously. The change in tdTomato fluorescence intensity was determined as a measurement of growth over 72 hours of culture. For assaying drug effects on extracellular amastigotes, trypomastigotes were collected from infected Vero cell cultures and converted in acidic media as previously described. Amastigotes (50,000/well) were incubated with 2-fold serial dilutions of compounds for 48 hours. The ATP production was used as an indication of growth in this case, and was measured by ATPlite Luminescence ATP Detection Assay System (PerkinElmer). Both fluorescence and luminescence were read using a BioTek Synergy Hybrid Multi-Mode reader equipped with the software Gene5 v 2.0 (BioTek). The dose-response curve was generated by […] analysis with GraphPad Prism v9.4.0 (GraphPad Software).
The CBPs knockout was produced using ribonucleoprotein (RNP) complexes as previously described. Briefly, Brazil tdTomato strain epimastigotes were electroporated with RNP complexes containing SaCas9 and an sgRNA targeting CBP gene TcBrA4_0048170, plus a repair template containing stop codons in all three reading frames and the M13 sequence for use as a PCR anchor. The sgRNA targeted the ‘[…]” sequence. After 2 days of recovery, single-cell clones were derived by depositing epimastigotes into a 96-well plate at a density of 0.5 cell/well by using a MoFlo Astrios EQ cell sorter (Beckman Coulter). DNA isolation was performed for clones, and primer pair of 5’-[…]-3’ and 5’- […] -3’ was used for amplifying the wild type allele, while primer pair of M13-F: 5’- […] -3’ and 5’- […] -3’ was used for amplifying the mutant allele.

[2] = Pharmacokinetic (PK) analysis in NHP; assay type: in vivo, rhesus macaques (Macaca mulatta); settings: 30 mg/kg dose
Method: Mid- and end-regimen PK assessments were also performed. […] Only 1 blood sample was collected at a single time point from each of the 18 animals. […] The plasma samples were provided to Pharmout Labs (Fremont, California) for analysis using LC-MS/MS. […] For calculation of PK parameters, the Cmax (maximum concentrations) and tmax (time to maximum concentrations) were determined by visual inspection of the plasma concentration vs. time curves from the pre-regimen and end-regimen periods. PK calculation was not performed for the mid-regimen PK samples since only 2 time points were collected. The AUC values for the pre- and end-regimen were calculated using the linear-trapezoidal rule with the following equation: AUC(t1-t2)=[(Ct2+Ct1)x(t2-t1)]/2 where t1 and t2 are consecutive sampling time points, AUC(t1-t2) is the fractional area-under-the-curve over time intervals t1 and t2, Ct2 is the concentration at time t2, Ct1 is the concentration at time t1. […] AUC0-∞ was estimated using the following equation: AUC0-∞=[…] Where AUC0-∞ was AUC from zero to infinity, AUClast was the AUC from zero to the last measurable time point, Clast was the concentration at the last measurable time point. AUC0-∞ and t1/2 were not estimated when the terminal elimination phase was not defined. Plasma clearance (CLp) after the IV dose was estimated using the following: CLp = Dose/AUC0-∞.

[3] = High dose 7-day toxicology study with exposure
[4] = Plasma protein binding (rat); assay type: in vitro ADME
[5] = Pharmacokinetics in rats (IV and PO); design: species or system rat; settings: in vivo
Method: Rat IV (2 mg/kg) Rat PO (10 mg/kg)
Cl (mL/h/kg) 2258 AUC0-last (hr*µg/mL) 3.34
AUC0-last (hr*µg/mL) 0.883
for AN15368 in rats. Data are presented as mean values +/- SEM; n= 3 animals.

[6] = NHP clinical observation, physical exams and reproductive follow-up
Method: Under light-anesthesia/sedation, peripheral blood samples were collected from each animal prior to treatment and at 7 time points following. Blood analysis (CBC and serum chemistry assays) and physical exams to evaluate the health of the study animals were performed on each animal prior to the beginning of the study and also at three time points during the treatment protocol (see Supplementary data).

[7] = NHP necropsy histology (lesions that could be consistent with Chagas); assay type: in vivo, rhesus macaques (Macaca mulatta); design: key to Skel mm, lesion grade / Small Int, lesion grade / Large Int, lesion grade / Heart, lesion grade: 0 (unlikely Chagas-related pathology); 5 (likely Chagas-related pathology); settings: individual treated macaques T1-T9 at necropsy

Q: Which “% of maximum” value ([1]; 0.00) does the source give for `Cc1c(C(=O)NC(C(=O)OCc2ccc(F)c(F)c2)C(C)C)ccc2c1B(O)OC2` (centres unmarked) [AN14353] here?
A: The value was 11% and 2% and 8%.

Q: What about the “% of maximum” value ([1]; 0.30) of the same compound?
A: Its value is 1% and -4% and 3%.

Q: What about the “% of maximum” value ([1]; -0.30) of the same compound?
A: The value was 1% and 9%.

Q: And the “% of maximum” value ([1]; -0.60)?
A: Its value is 14% and 11% and 5%.

Q: What about the “% of maximum” value ([1]; -0.90) of the same compound?
A: Its value is 20% and 18% and 16%.

Q: What about the “% of maximum” value ([1]; -1.20) of the same compound?
A: Its value is 31% and 40% and 33%.

Q: What about the “% of maximum” value ([1]; -1.51) of the same compound?
A: The value was 54% and 51% and 59%.

Q: What about the “% of maximum” value ([1]; -1.81) of the same compound?
A: Its value is 101% and 104% and 95%.

Q: What about the “% of maximum” value ([1]; -2.11) of the same compound?
A: Its value is 106% and 104% and 96%.

Q: What about the “% of maximum” value ([1]; -2.41) of the same compound?
A: Its value is 101% and 104%.

Q: What about the “% of maximum” value ([1]; -2.71) of the same compound?
A: Its value is 100% and 102%.

Q: What about the IC50 ([1]; Trypanosoma cruzi, read-out: TcCBP KO IC50) of the same compound?
A: The IC50 was 44.4 nM.

Q: Which exposure [2] does the source give for `Cc1c(C(=O)N[C@H](C(=O)OCC2CCOCC2)C(C)C)ccc2c1B(O)OC2` [AN15368] here?
A: The exposure was 3.5 to 4.7 µg·h/kg.

Q: And the “dose proportionality of exposure” value ([3]; 7-day toxicology studies / rats)?
A: Its value is “good dose proportional exposure”.

Q: And the “NOAEL dose translated by allometric scaling” value ([3]; humans)?
A: Its value is 19.4 mg/kg.

Q: And the “NOAEL dose translated by allometric scaling” value ([3]; monkeys)?
A: Its value is 60.5 mg/kg.

Q: And the AUC(0-t) ([3]; rat, in vivo, 120 mg/kg/day, Total plasma exposure (AUC0-24 h), rats, 120 mg/kg/day (NOAEL dose))?
A: Its AUC(0-t) is 30000 ng·h/mL.

Q: And the AUC ([3]; rat, in vivo, 600 mg/kg)?
A: Its AUC is 256000 ng·h/mL.

Q: What about the NOAEL at 7 days ([3]; rat, in vivo, oral) of the same compound?
A: The NOAEL at 7 days was 120 mg/kg.

Q: What about the microscopic findings ([3]; rats) of the same compound?
A: The microscopic findings was “observed microscopically in liver (dose dependent), kidney”.

Q: What about the “effects on hematology and clinical chemistry” value ([3]; rats, 120 mg/kg/day or lower) of the same compound?
A: The value was “none”.

Q: And the “effects on hematology and clinical chemistry” value ([3]; rats, 150 mg/kg)?
A: Its value is “modest effects”.

Q: What about the drug accumulation ([3]; rats, between the first and seventh days of the study) of the same compound?
A: Its drug accumulation is “no evidence of drug accumulation”.

Q: And the “Funbound (rat)” value [4]?
A: The value was 10%.

Q: What about the AUC(0-t) ([5]; Rat IV (2 mg/kg)) of the same compound?
A: Its AUC(0-t) is 883 ng·h/mL.

Q: And the Cmax ([5]; Rat IV (2 mg/kg))?
A: Its Cmax is 1700 ± 200 ng/mL.

Q: What about the clearance ([5]; Rat IV (2 mg/kg)) of the same compound?
A: The clearance was 37.6 mL/min/kg.

Q: What about the Vd ([5]; Rat IV (2 mg/kg), read-out: Vss) of the same compound?
A: The Vd was 1.11 L/kg.

Q: And the AUC(0-t) ([5]; Rat PO (10 mg/kg))?
A: The AUC(0-t) was 3340 ng·h/mL.

Q: And the Cmax ([5]; Rat PO (10 mg/kg))?
A: Its Cmax is 2100 ± 290 ng/mL.

Q: What about the bioavailability ([5]; Rat PO (10 mg/kg)) of the same compound?
A: The bioavailability was 76.1%.

Q: And the adverse events ([6]; 19 treated macaques, 60 day treatment period)?
A: Its adverse events is “No adverse events”.

Q: What about the “healthy and T. cruzi-seronegative infants produced” value ([6]; female, rhesus monkey, in vivo, 2 years) of the same compound?
A: Its value is 13.

Q: And the “Heart, lesion grade” value [7]?
A: The value was 1* and 0 and 2* and 3*.

Q: And the “Histology Comments” value [7]?
A: The value was “Heart- mutifocal areas of mild epicarditis; also recorded: No overt pathology identified; also recorded: Sk mm- mild focal area of neutrophilic and lymphocytic inflammation Small int- prominent villar tip necrosis/apoptosis, multifocal Lrg Int- focal area of mild lymphohistiocytic inflammation in muscularis; also recorded: Heart- Multifocal areas of mild lymphohistiocytic inflammation/myofiber loss; regional area of mild-moderate myocardial fibrosis; intravascular bacterial or fungal thrombus. Heart lesions are likely related to thromus/infection but Chagas can't be ruled out; also recorded: Sk mm- Multifocal areas of mild lymphohistiocytic inflammation and myofiber loss; Lrg Int- Mild diffsue lymphoplasmactic colitis; focal area of mild lymphohistiocytic inflammation in muscularis; also recorded: Heart - multiple foci of mild lymphoctic inflammation Sk mm-one section has acute myofiber degeneration (ketamine artifact) Small int- prominent villar tip necrosis/apoptosis, multifocal; also recorded: Heart- multifocal areas of mild to moderate myocardial, subepicardial, and perivascular lymphohistiocytic and plasmacytic inflammation; regional area of mild-moderate myocardial fibrosis”.

Q: And the “Large Int, lesion grade” value [7]?
A: The value was 0 and 1*.

Q: What about the “Skel mm, lesion grade” value [7] of the same compound?
A: Its value is 0 and 1* and 2*.

Q: And the “Small Int, lesion grade” value [7]?
A: Its value is 0.
